# Data: patent US20220009906A1, “ISOINDOLIN-1-ONE DERIVATIVES USEFUL AS GRK2 INHIBITORS” (priority 2020, published 2022)
# Target: T1, GRK2 (Homo sapiens, UniProt P25098)
# T1 sequence (P25098 1-689): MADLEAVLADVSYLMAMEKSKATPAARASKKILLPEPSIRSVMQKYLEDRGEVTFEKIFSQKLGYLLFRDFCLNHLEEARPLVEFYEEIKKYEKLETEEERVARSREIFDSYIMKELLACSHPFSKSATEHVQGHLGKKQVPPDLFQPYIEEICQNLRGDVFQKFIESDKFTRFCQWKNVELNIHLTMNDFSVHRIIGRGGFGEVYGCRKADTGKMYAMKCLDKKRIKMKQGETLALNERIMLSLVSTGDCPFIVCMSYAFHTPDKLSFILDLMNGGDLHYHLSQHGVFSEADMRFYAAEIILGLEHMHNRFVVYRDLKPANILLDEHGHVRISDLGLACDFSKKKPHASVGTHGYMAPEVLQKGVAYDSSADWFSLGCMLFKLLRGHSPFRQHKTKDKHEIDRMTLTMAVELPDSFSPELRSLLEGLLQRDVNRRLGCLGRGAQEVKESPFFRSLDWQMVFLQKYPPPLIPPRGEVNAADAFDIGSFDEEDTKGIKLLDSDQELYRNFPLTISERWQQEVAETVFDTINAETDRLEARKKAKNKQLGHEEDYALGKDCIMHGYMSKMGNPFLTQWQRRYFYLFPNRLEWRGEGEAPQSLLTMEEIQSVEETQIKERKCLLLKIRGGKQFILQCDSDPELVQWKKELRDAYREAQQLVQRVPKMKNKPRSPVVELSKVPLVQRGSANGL
# Assay: hGRK2 LANCE Ultra In Vitro Assay
# Assay type: biochemical
# Settings: Biological Example 1 GRK2 Lancer IC50 (μM), 10 nM GRK2; 30 or 600 μM ATP (not stated which); multiple measurements listed individually
# Outline: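 TR-FRET kinase assay with 10 nM GRK2 preincubated 30 min with compound, then 200 nM ULight-peptide and 30 or 600 μM ATP in HEPES pH 7.5, 10 mM MgCl2, 1% DMSO; 120 or 60 min at ambient temperature respectively.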
row,Compound,IC50 [µM]
1,CC(C)NC(=O)c1cccc(CN2Cc3cc(F)c(-c4cn[nH]c4)cc3C2=O)c1 [Compound 166],0.005
2,"COc1cccc([C@@H](C)N2Cc3c(cc(-c4cn[nH]c4)cc3-c3ccc(C(C)(C)O)nc3)C2=O)c1 [Compound 141, (R)-4-(6-(2-hydroxypropan-2-yl)pyridin-3-yl)-2-(1-(3-methoxyphenyl)ethyl)-6-(1H-pyrazol-4-yl)isoindolin-1-one]",0.02
3,CCOc1cccc([C@H](CO)N2Cc3ccc(-c4cn[nH]c4)cc3C2=O)c1 [Compound 112],0.306
4,CCOc1cccc([C@@H](C)N2Cc3ccc(-c4cn[nH]c4)c(F)c3C2=O)c1 [Compound 48],0.01
5,"COc1cccc(CN2C(=O)c3cc(-c4cn[nH]c4)ccc3C23CCOC3)c1 (centres unmarked) [Compound 75, 2′-(3-methoxybenzyl)-5′-(1H-pyrazol-4-yl)-4,5-dihydro-2H-spiro[furan-3,1′-isoindolin]-3′-one]",0.007
6,COc1cccc([C@@H](C2CC2)N2Cc3ccc(-c4cn[nH]c4)cc3C2=O)c1 [Compound 96],0.012
7,"COc1cccc(C(COCC(N)=O)N2Cc3ccc(-c4cn[nH]c4)cc3C2=O)c1 (centres unmarked) [Compound 62, 2-(2-(3-Methoxyphenyl)-2-(1-oxo-6-(1H-pyrazol-4-yl)isoindolin-2-yl)ethoxy)acetamide]",0.007
8,"O=C1c2cc(-c3cn[nH]c3)ccc2CN1Cc1cccs1 [Compound 28, 6-(1H-Pyrazol-4-yl)-2-(thiophen-2-ylmethyl)isoindolin-1-one]",0.091
9,O=C1c2cc(-c3cn[nH]c3)ccc2CN1Cc1cccc(O)c1 [Compound 135],0.005
10,"COc1cccc(CN2C(=O)c3cc(-c4cn[nH]c4)ccc3C23CCCC3)c1 [Compound 42, 2′-(3-methoxybenzyl)-5′-(1H-pyrazol-4-yl)spiro[cyclopentane-1,1′-isoindolin]-3′-one]",0.006
11,"COc1cccc([C@@H](C)N2Cc3c(cc(-c4cn[nH]c4)cc3-c3cncnc3)C2=O)c1 [Compound 130, 2-[(1R)-1-(3-methoxyphenyl)ethyl]-6-(1H-pyrazol-4-yl)-4-pyrimidin-5-yl-isoindolin-1-one]",< 0.005
12,"CCOc1cccc([C@@H](C)N2Cc3ccc(-c4cn[nH]c4)cc3C2=O)c1 [Compound 29, 2-[(1R)-1-(3-ethoxyphenyl)ethyl]-6-(1H-pyrazol-4-yl)isoindolin-1-one]",0.006
13,"COc1cccc(CN2C(=O)c3cc(-c4cn[nH]c4)ccc3C23CCCC3C(N)=O)c1 (centres unmarked) [Compound 111, 2′-(3-methoxybenzyl)-3′-oxo-5′-(1H-pyrazol-4-yl)spiro[cyclopentane-1,1′-isoindoline]-2-carboxamide]",0.007
14,COc1cccc(CN2Cc3ccc(-c4ccncc4)cc3C2=O)c1 [Compound 66],0.023
15,"COc1cccc([C@@H](C)N2Cc3c(cc(-c4cn[nH]c4)cc3-c3cccnc3)C2=O)c1 [Compound 124, (R)-2-(1-(3-methoxyphenyl)ethyl)-6-(1H-pyrazol-4-yl)-4-(pyridin-3-yl)isoindolin-1-one]",0.005
16,"COc1cccc(C(C(=O)c2ccccc2)N2Cc3ccc(-c4cn[nH]c4)cc3C2=O)c1 (centres unmarked) [Compound 92, 2-(1-(3-methoxyphenyl)-2-oxo-2-phenylethyl)-6-(1H-pyrazol-4-yl)isoindolin-1-one]",5.01
17,"COc1cccc(CN2C(=O)c3cc(-c4cn[nH]c4)ccc3C23CCCC3N)c1 (centres unmarked) [Compound 123, 2-amino-2′-(3-methoxybenzyl)-5′-(1H-pyrazol-4-yl)spiro[cyclopentane-1,1′-isoindolin]-3′-one]",0.015
18,"COc1cccc([C@@H](C)N2Cc3c(cc(-c4cn[nH]c4)cc3-c3cccc(O)c3)C2=O)c1 [Compound 139, (R)-4-(3-hydroxyphenyl)-2-(1-(3-methoxyphenyl)ethyl)-6-(1H-pyrazol-4-yl)isoindolin-1-one]",0.033
19,CCOc1cccc([C@@H](C)N2Cc3ccc(-c4ncccn4)cc3C2=O)c1 [Compound 171],0.104

row,Compound,IC50 [µM]
1,"CCOc1cccc(CN2C(=O)c3cc(-n4cn[nH]c4=O)ccc3C2(C)C)c1 [Compound 45, 2-(3-ethoxybenzyl)-3,3-dimethyl-6-(5-oxo-1,5-dihydro-4H-1,2,4-triazol-4-yl)isoindolin-1-one]",1.62
2,"COc1cccc(C(CC(=O)O)N2Cc3ccc(-c4cn[nH]c4)cc3C2=O)c1 (centres unmarked) [Compound 100, 3-(3-methoxyphenyl)-3-(1-oxo-6-(1H-pyrazol-4-yl)isoindolin-2-yl)propanoic acid]",6.24
3,"COc1cccc([C@@H](C)N2Cc3c(cc(-c4cn[nH]c4)cc3N3CCNCC3)C2=O)c1 [Compound 155, (R)-2-(1-(3-methoxyphenyl)ethyl)-4-(piperazin-1-yl)-6-(1H-pyrazol-4-yl)isoindolin-1-one]",0.007
4,"COCC(c1cccc(OC)c1)N1Cc2ccc(-c3cn[nH]c3)cc2C1=O (centres unmarked) [Compound 59, 2-(2-methoxy-1-(3-methoxyphenyl)ethyl)-6-(1H-pyrazol-4-yl)isoindolin-1-one]",0.009
5,COc1cccc(C(Cc2nnn[nH]2)N2Cc3ccc(-c4cn[nH]c4)cc3C2=O)c1 (centres unmarked) [Compound 84],0.167
6,CCOc1cccc([C@H](C(=O)OC)N2Cc3ccc(-c4ccncc4)cc3C2=O)c1 [Compound 76],> 20
7,O=C(N[C@H]1C[C@H]2CC[C@@H]1C2)c1cccc(CN2Cc3ccc(-c4cn[nH]c4)cc3C2=O)c1 [Compound 128],< 0.005
8,O=C(O)COc1cccc(CN2Cc3ccc(-c4cn[nH]c4)cc3C2=O)c1 [Compound 55],0.011
9,"COc1cccc(C(c2nn[nH]n2)N2Cc3ccc(-c4cn[nH]c4)cc3C2=O)c1 (centres unmarked) [Compound 94, 2-((3-methoxyphenyl)(2H-tetrazol-5-yl)methyl)-6-(1H-pyrazol-4-yl)isoindolin-1-one]",0.652
10,O=C(NC1CC2CCC1C2)c1cccc(CN2Cc3ccc(-c4cn[nH]c4)cc3C2=O)c1 (centres unmarked) [Compound 174],0.003
11,"COc1cccc(C(COCCO)N2Cc3ccc(-c4cn[nH]c4)cc3C2=O)c1 (centres unmarked) [Compound 63, 2-(2-(2-Hydroxyethoxy)-1-(3-methoxyphenyl)ethyl)-6-(1H-pyrazol-4-yl)isoindolin-1-one]",0.008
12,"COc1cccc(C(CN(C)C)N2Cc3ccc(-c4cn[nH]c4)cc3C2=O)c1 (centres unmarked) [Compound 80, 2-(2-(dimethylamino)-1-(3-methoxyphenyl)ethyl)-6-(1H-pyrazol-4-yl)isoindolin-1-one]",0.044
13,"COc1cccc([C@@H](C)N2Cc3ccc(-c4cn[nH]c4)c(F)c3C2=O)c1 [Compound 30, 7-fluoro-2-[(1R)-1-(3-methoxyphenyl)ethyl]-6-(1H-pyrazol-4-yl)isoindolin-1-one]",< 0.005
14,CCOc1cccc([C@@H](CO)N2Cc3ccc(-c4cn[nH]c4)cc3C2=O)c1 [Compound 114],0.006
15,CCOc1cccc([C@H](C(=O)O)N2Cc3ccc(-c4cn[nH]c4)cc3C2=O)c1 [Compound 74],4.2
16,"COc1cccc(C(CO)N2Cc3c(cc(-c4cn[nH]c4)cc3-c3cncc(F)c3)C2=O)c1 (centres unmarked) [Compound 152, 4-(5-fluoropyridin-3-yl)-2-(2-hydroxy-1-(3-methoxyphenyl)ethyl)-6-(1H-pyrazol-4-yl)isoindolin-1-one]",0.017
17,Cc1ccc(CN2Cc3ccc(-c4cn[nH]c4)cc3C2=O)s1 [Compound 27],0.324
18,"COc1cccc(CN2C(=O)c3cc(-c4cn[nH]c4)ccc3C23CCC(O)C3)c1 (centres unmarked) [Compound 46, 3-hydroxy-2′-(3-methoxybenzyl)-5′-(1H-pyrazol-4-yl)spiro[cyclopentane-1,1′-isoindolin]-3′-one]",0.007
19,COc1cccc(CN2C(=O)c3cc(-c4cn[nH]c4)ccc3C23CCC(OC)C3)c1 (centres unmarked) [Compound 170],0.006
